Oligonucleotides are written 5' to 3', each unit as a sugar letter and its base; * is a phosphorothioate linkage, no mark a phosphodiester; rarer units and linkages stand in square brackets, end groups in braces. Plain capitals give the bases only. d = 2'-deoxy (DNA); r = 2'-OH (RNA)
biological target: UBE2J1; experiment: reporter assay of Huesken 2005; details: siRNA
Further: test concentration or dose not given here.

Substance	normalised inhibition (eCFP-eYFP dual reporter) [%]
sense rArCrArArArArGrGrArGrArGrGrGrArGrCrCrAdTdT / antisense rUrGrGrCrUrCrCrCrUrCrUrCrCrUrUrUrUrGrUdTdG	41.7
sense rArCrArGrCrArUrUrArUrUrArGrCrCrArUrCrAdTdT / antisense rUrGrArUrGrGrCrUrArArUrArArUrGrCrUrGrUdCdC	54.7
sense rArGrArArGrUrCrArArUrUrCrArUrCrUrGrGrAdTdT / antisense rUrCrCrArGrArUrGrArArUrUrGrArCrUrUrCrUdGdC	79.6
sense rArGrArGrArArGrGrUrUrGrUrCrUrArCrUrUrCdTdT / antisense rGrArArGrUrArGrArCrArArCrCrUrUrCrUrCrUdGdA	78.8
sense rArGrGrArArArGrArArGrArGrCrArCrUrUrGrCdTdT / antisense rGrCrArArGrUrGrCrUrCrUrUrCrUrUrUrCrCrUdCdA	70.7
sense rArGrGrArCrArGrCrArUrUrArUrUrArGrCrCrAdTdT / antisense rUrGrGrCrUrArArUrArArUrGrCrUrGrUrCrCrUdTdA	74.8
sense rArUrArUrArUrCrUrGrGrCrArArArCrGrArArUdTdT / antisense rArUrUrCrGrUrUrUrGrCrCrArGrArUrArUrArUdTdC	95.9
sense rArUrCrArUrUrArCrCrArUrGrCrGrCrArGrCrCdTdT / antisense rGrGrCrUrGrCrGrCrArUrGrGrUrArArUrGrArUdCdT	55.2
sense rArUrCrCrArGrGrGrCrCrArCrCrArGrCrCrArAdTdT / antisense rUrUrGrGrCrUrGrGrUrGrGrCrCrCrUrGrGrArUdTdA	76
sense rArUrGrArArArCrCrArCrCrArArGrCrArUrUrAdTdT / antisense rUrArArUrGrCrUrUrGrGrUrGrGrUrUrUrCrArUdGdG	68.1
sense rArUrGrGrUrCrGrArUrUrUrGrArArGrUrGrGrGdTdT / antisense rCrCrCrArCrUrUrCrArArArUrCrGrArCrCrArUdTdA	56.3
sense rArUrUrUrArCrArArGrArUrGrArUrArUrArCrCdTdT / antisense rGrGrUrArUrArUrCrArUrCrUrUrGrUrArArArUdCdA	47.6
sense rCrArArArUrArArGrCrUrUrUrArArGrGrCrArGdTdT / antisense rCrUrGrCrCrUrUrArArArGrCrUrUrArUrUrUrGdCdC	56
sense rCrArCrCrArGrCrCrArArGrArGrArCrArArCrCdTdT / antisense rGrGrUrUrGrUrCrUrCrUrUrGrGrCrUrGrGrUrGdGdC	55.8
sense rCrArGrArArGrUrCrArArUrUrCrArUrCrUrGrGdTdT / antisense rCrCrArGrArUrGrArArUrUrGrArCrUrUrCrUrGdCdC	60.5
sense rCrArUrCrUrCrArGrGrCrCrArUrCrArUrCrCrUdTdT / antisense rArGrGrArUrGrArUrGrGrCrCrUrGrArGrArUrGdCdT	64.7
sense rCrCrCrArArCrCrUrGrUrArGrCrUrArArGrArAdTdT / antisense rUrUrCrUrUrArGrCrUrArCrArGrGrUrUrGrGrGdTdA	78.5

Substance	normalised inhibition (eCFP-eYFP dual reporter) [%]
sense rCrCrGrArUrUrUrUrGrArUrGrGrArGrGrArGrUdTdT / antisense rArCrUrCrCrUrCrCrArUrCrArArArArUrCrGrGdAdG	48
sense rCrCrGrGrGrCrCrCrArGrCrArGrCrArGrArGrUdTdT / antisense rArCrUrCrUrGrCrUrGrCrUrGrGrGrCrCrCrGrGdCdG	47.4
sense rCrCrUrUrUrCrArUrCrArArCrCrUrArCrCrCrAdTdT / antisense rUrGrGrGrUrArGrGrUrUrGrArUrGrArArArGrGdAdT	56.2
sense rCrUrCrUrUrArUrArUrUrCrCrGrArCrGrArArUdTdT / antisense rArUrUrCrGrUrCrGrGrArArUrArUrArArGrArGdCdT	98.8
sense rCrUrGrArCrCrArArGrArArGrCrCrArArArGrAdTdT / antisense rUrCrUrUrUrGrGrCrUrUrCrUrUrGrGrUrCrArGdCdT	73.1
sense rCrUrGrArCrUrUrUrGrGrCrArUrUrGrGrCrArGdTdT / antisense rCrUrGrCrCrArArUrGrCrCrArArArGrUrCrArGdGdA	76.4
sense rGrArArGrUrCrArArUrUrCrArUrCrUrGrGrArAdTdT / antisense rUrUrCrCrArGrArUrGrArArUrUrGrArCrUrUrCdTdG	75.3
sense rGrArCrCrArArGrArArGrCrCrArArArGrArArCdTdT / antisense rGrUrUrCrUrUrUrGrGrCrUrUrCrUrUrGrGrUrCdAdG	56.7
sense rGrArGrCrArUrCrUrCrArGrGrCrCrArUrCrArUdTdT / antisense rArUrGrArUrGrGrCrCrUrGrArGrArUrGrCrUrCdAdA	64.1
sense rGrArGrUrArUrArArGrGrArCrArGrCrArUrUrAdTdT / antisense rUrArArUrGrCrUrGrUrCrCrUrUrArUrArCrUrCdCdA	91.4
sense rGrArGrUrCrArGrArCrUrUrArArArCrCrArCrUdTdT / antisense rArGrUrGrGrUrUrUrArArGrUrCrUrGrArCrUrCdAdG	88.7
sense rGrCrArGrArArGrUrCrArArUrUrCrArUrCrUrGdTdT / antisense rCrArGrArUrGrArArUrUrGrArCrUrUrCrUrGrCdCdT	54.4
sense rGrCrCrArCrCrArGrArGrUrArUrCrCrCrArUrGdTdT / antisense rCrArUrGrGrGrArUrArCrUrCrUrGrGrUrGrGrCdAdG	53.6
sense rGrCrCrUrUrUrArArArArUrCrUrGrGrArArGrCdTdT / antisense rGrCrUrUrCrCrArGrArUrUrUrUrArArArGrGrCdAdA	50.4
sense rGrCrGrCrCrGrGrGrCrCrCrArGrCrArGrCrArGdTdT / antisense rCrUrGrCrUrGrCrUrGrGrGrCrCrCrGrGrCrGrCdTdG	35.3
sense rGrCrUrGrUrArCrUrGrArUrUrGrUrCrArUrCrCdTdT / antisense rGrGrArUrGrArCrArArUrCrArGrUrArCrArGrCdTdG	62.4
sense rGrGrArGrArGrGrGrArGrCrCrArUrArGrGrUrUdTdT / antisense rArArCrCrUrArUrGrGrCrUrCrCrCrUrCrUrCrCdTdT	61

biological target: UBE2L3; experiment: reporter assay of Huesken 2005; details: siRNA

Substance	normalised inhibition (eCFP-eYFP dual reporter) [%]
sense rGrCrArGrGrUrCrUrGrUrCrUrGrCrCrArGrUrAdTdT / antisense rUrArCrUrGrGrCrArGrArCrArGrArCrCrUrGrCdCdC	52.7
sense rGrCrUrArArUrUrUrArUrUrGrArCrUrUrGrGrCdTdT / antisense rGrCrCrArArGrUrCrArArUrArArArUrUrArGrCdTdT	46.2
sense rGrCrUrGrArCrCrUrArGrCrUrGrArArGrArArUdTdT / antisense rArUrUrCrUrUrCrArGrCrUrArGrGrUrCrArGrCdCdC	70.1
sense rGrGrArArGrCrCrArGrCrArArCrCrArArArArCdTdT / antisense rGrUrUrUrUrGrGrUrUrGrCrUrGrGrCrUrUrCrCdAdG	73
sense rGrGrCrArArGrGrGrCrUrUrArUrUrGrUrUrCrCdTdT / antisense rGrGrArArCrArArUrArArGrCrCrCrUrUrGrCrCdAdA	79.4
sense rGrGrUrCrUrGrUrCrUrGrCrCrArGrUrArArUrUdTdT / antisense rArArUrUrArCrUrGrGrCrArGrArCrArGrArCrCdTdG	74.3
sense rGrUrCrUrGrUrCrUrGrCrCrArGrUrArArUrUrAdTdT / antisense rUrArArUrUrArCrUrGrGrCrArGrArCrArGrArCdCdT	91
sense rUrArCrCrCrArUrUrCrArArArCrCrArCrCrGrAdTdT / antisense rUrCrGrGrUrGrGrUrUrUrGrArArUrGrGrGrUrAdCdT	71.8
sense rUrArUrCrArCrCrCrArArArCrArUrCrGrArCrGdTdT / antisense rCrGrUrCrGrArUrGrUrUrUrGrGrGrUrGrArUrAdGdA	57
sense rUrArUrUrGrArCrUrUrGrGrCrArArGrGrGrCrUdTdT / antisense rArGrCrCrCrUrUrGrCrCrArArGrUrCrArArUrAdAdA	75.3
sense rUrCrArUrArGrCrArCrUrGrGrUrGrArArUrGrAdTdT / antisense rUrCrArUrUrCrArCrCrArGrUrGrCrUrArUrGrAdGdG	77.5
sense rUrCrCrArGrGrUrUrGrArUrGrArArGrCrUrArAdTdT / antisense rUrUrArGrCrUrUrCrArUrCrArArCrCrUrGrGrAdTdG	112
sense rUrCrCrUrGrArCrArArCrCrCrUrCrCrArUrArUdTdT / antisense rArUrArUrGrGrArGrGrGrUrUrGrUrCrArGrGrAdAdC	69.7
sense rUrGrArUrArArGrGrGrArGrCrCrUrUrCrArGrAdTdT / antisense rUrCrUrGrArArGrGrCrUrCrCrCrUrUrArUrCrAdTdA	110
sense rUrGrUrCrUrGrCrCrArGrUrArArUrUrArGrUrGdTdT / antisense rCrArCrUrArArUrUrArCrUrGrGrCrArGrArCrAdGdA	51.7
sense rUrUrCrArArArCrCrArCrCrGrArArGrArUrCrAdTdT / antisense rUrGrArUrCrUrUrCrGrGrUrGrGrUrUrUrGrArAdTdG	65.9
sense rUrUrCrGrGrGrCrUrGrArCrCrUrArGrCrUrGrAdTdT / antisense rUrCrArGrCrUrArGrGrUrCrArGrCrCrCrGrArAdGdC	49
sense rUrUrGrArCrUrUrGrGrCrArArGrGrGrCrUrUrAdTdT / antisense rUrArArGrCrCrCrUrUrGrCrCrArArGrUrCrArAdTdA	61.9

Source: the OligoGym collection
